According to PubChem BioAssay AID1963448 (Molecular Pharmacology Branch, DTP, NCI, 2024):
Where “and” joins values, the source holds several entries; their conditions need not be identical. Equal entries are not always repeated.

System: 616215-338-R-J1-PDC complex spheroid growth, % test/control
Experiment: Anticancer human tumor 616215-338-R-J1-PDC patient-derived colon adenocarcinoma cell line growth inhibition [Asc]
Details: for viability, T/C: stronger effect = lower value
In short: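 Concentration series start at each agent's clinical Cmax, or at 10 microM when none is established, and drop in half-log steps; agents are applied alone or together to complex spheroids built with HUVEC and hMSC.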
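Also: spheroids exposed to agents for seven days before readout.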
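For viability, T/C in this document: 100% = DMSO vehicle control viability.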

Compound O=C(c1ccc(F)c(F)c1Nc1ccc(I)cc1F)N1CC(O)([C@@H]2CCCCN2)C1 + CNC(C)C(=O)NC1CN(S(=O)(=O)c2cccc(S(=O)(=O)N3CCC4CCC(C(=O)NC(c5ccccc5)c5ccccc5)N4C(=O)C(NC(=O)C(C)NC)C3)c2)CCC2CCC(C(=O)NC(c3ccccc3)c3ccccc3)N2C1=O has an IC50 (curve of first compound, second compound 0.00316 µM) of 40.6 nM, an IC50 (curve of first compound, second compound 0.01 µM) of 19.2 nM and an IC50 (curve of first compound, second compound 0.0316 µM) of 46.6 nM. It also gave an IC50 (curve of first compound, second compound 0.1 µM) of 44.6 nM, an IC50 (curve of first compound, second compound 0.316 µM) of 38.5 nM and an IC50 (curve of first compound, second compound 1 µM) of 24 nM. The viability, T/C (second compound 0.00316 µM, first compound 0.00316 µM) was 113%, the viability, T/C (second compound 0.00316 µM, first compound 0.01 µM) was 94.8% and the viability, T/C (second compound 0.00316 µM, first compound 0.0316 µM) was 64.3%. For the same compound, the viability, T/C (second compound 0.00316 µM, first compound 0.1 µM) was 3.19%, the viability, T/C (second compound 0.00316 µM, first compound 0.316 µM) was 0.64% and the viability, T/C (second compound 0.00316 µM, first compound 1 µM) was 0.34%. For the same compound, the viability, T/C (second compound 0.01 µM, first compound 0.00316 µM) was 98.9%, the viability, T/C (second compound 0.01 µM, first compound 0.01 µM) was 109% and the viability, T/C (second compound 0.01 µM, first compound 0.0316 µM) was 8.64%. For the same compound, the viability, T/C (second compound 0.01 µM, first compound 0.1 µM) was 18.4%, the viability, T/C (second compound 0.01 µM, first compound 0.316 µM) was 2.31% and the viability, T/C (second compound 0.01 µM, first compound 1 µM) was 2.27%. For the same compound, the viability, T/C (second compound 0.0316 µM, first compound 0.00316 µM) was 103%, the viability, T/C (second compound 0.0316 µM, first compound 0.01 µM) was 87.8% and the viability, T/C (second compound 0.0316 µM, first compound 0.0316 µM) was 71.4%. The viability, T/C (second compound 0.0316 µM, first compound 0.1 µM) was 8.55%, the viability, T/C (second compound 0.0316 µM, first compound 0.316 µM) was 1.84% and the viability, T/C (second compound 0.0316 µM, first compound 1 µM) was 1.89%. The viability, T/C (second compound 0.1 µM, first compound 0.00316 µM) was 99.6%, the viability, T/C (second compound 0.1 µM, first compound 0.01 µM) was 99.8% and the viability, T/C (second compound 0.1 µM, first compound 0.0316 µM) was 70.7%. For the same compound, the viability, T/C (second compound 0.1 µM, first compound 0.1 µM) was 1.22%, the viability, T/C (second compound 0.1 µM, first compound 0.316 µM) was 0.55% and the viability, T/C (second compound 0.1 µM, first compound 1 µM) was 1.32%. The viability, T/C (second compound 0.316 µM, first compound 0.00316 µM) was 109%, the viability, T/C (second compound 0.316 µM, first compound 0.01 µM) was 107% and the viability, T/C (second compound 0.316 µM, first compound 0.0316 µM) was 56%. It also gave a viability, T/C (second compound 0.316 µM, first compound 0.1 µM) of 14.7%, a viability, T/C (second compound 0.316 µM, first compound 0.316 µM) of 2.54% and a viability, T/C (second compound 0.316 µM, first compound 1 µM) of 1.35%. The viability, T/C (second compound 1 µM, first compound 0.00316 µM) was 102%, the viability, T/C (second compound 1 µM, first compound 0.01 µM) was 106% and the viability, T/C (second compound 1 µM, first compound 0.0316 µM) was 32.9%. The viability, T/C (second compound 1 µM, first compound 0.1 µM) was 1.86%, the viability, T/C (second compound 1 µM, first compound 0.316 µM) was 0.87% and the viability, T/C (second compound 1 µM, first compound 1 µM) was 1.24%.

With Cc1nc(N2CCC3(CC2)COC(C)C3N)c(CO)nc1Sc1ccnc(N)c1Cl (centres undefined) the viability, T/C (compound 0.00949 µM) was 102% and 94% and 101%, the viability, T/C (compound 0.03 µM) was 90.5% and 98.1% and 102% and the viability, T/C (compound 0.0949 µM) was 104% and 105% and 103%. For the same compound, the viability, T/C (compound 0.3 µM) was 81.2% and 99.7% and 101%, the viability, T/C (compound 0.949 µM) was 48% and 102% (2×) and the viability, T/C (compound 3 µM) was 11.8% and 95.5% and 91.3%. For the same compound, the IC50 (curve of compound) was 871 nM and > 3000 nM.

In the case of O=C(c1cc(Cc2n[nH]c(=O)c3ccccc23)ccc1F)N1CCN(C(=O)C2CC2)CC1 + CCN1C(C(=O)NC23CCC(C(=O)O)(CC2)CC3)C(c2cccc(Cl)c2F)C2(C(=O)Nc3cc(Cl)ccc32)C12CCCCC2, the IC50 (curve of first compound, second compound 0.03 µM) is reported as > 10000 nM, the IC50 (curve of first compound, second compound 0.0949 µM) is reported as > 10000 nM and the IC50 (curve of first compound, second compound 0.3 µM) is reported as > 10000 nM. The IC50 (curve of first compound, second compound 0.949 µM) was > 10000 nM, the IC50 (curve of first compound, second compound 3 µM) was > 10000 nM and the viability, T/C (second compound 0.03 µM, first compound 0.0316 µM) was 101%. The viability, T/C (second compound 0.03 µM, first compound 0.1 µM) was 99.1%, the viability, T/C (second compound 0.03 µM, first compound 0.316 µM) was 99.4% and the viability, T/C (second compound 0.03 µM, first compound 1 µM) was 99.8%. The viability, T/C (second compound 0.03 µM, first compound 3.16 µM) was 94.1%, the viability, T/C (second compound 0.03 µM, first compound 10 µM) was 77.6% and the viability, T/C (second compound 0.0949 µM, first compound 0.0316 µM) was 99%. For the same compound, the viability, T/C (second compound 0.0949 µM, first compound 0.1 µM) was 100%, the viability, T/C (second compound 0.0949 µM, first compound 0.316 µM) was 97.8% and the viability, T/C (second compound 0.0949 µM, first compound 1 µM) was 92.2%. The viability, T/C (second compound 0.0949 µM, first compound 3.16 µM) was 81.2%, the viability, T/C (second compound 0.0949 µM, first compound 10 µM) was 67.5% and the viability, T/C (second compound 0.3 µM, first compound 0.0316 µM) was 73.3%. For the same compound, the viability, T/C (second compound 0.3 µM, first compound 0.1 µM) was 72.6%, the viability, T/C (second compound 0.3 µM, first compound 0.316 µM) was 78% and the viability, T/C (second compound 0.3 µM, first compound 1 µM) was 71.8%. The viability, T/C (second compound 0.3 µM, first compound 3.16 µM) was 61.4%, the viability, T/C (second compound 0.3 µM, first compound 10 µM) was 65.2% and the viability, T/C (second compound 0.949 µM, first compound 0.0316 µM) was 74.7%. The viability, T/C (second compound 0.949 µM, first compound 0.1 µM) was 80.8%, the viability, T/C (second compound 0.949 µM, first compound 0.316 µM) was 72.4% and the viability, T/C (second compound 0.949 µM, first compound 1 µM) was 68.5%. It also gave a viability, T/C (second compound 0.949 µM, first compound 3.16 µM) of 67%, a viability, T/C (second compound 0.949 µM, first compound 10 µM) of 55.7% and a viability, T/C (second compound 3 µM, first compound 0.0316 µM) of 61.4%. For the same compound, the viability, T/C (second compound 3 µM, first compound 0.1 µM) was 62.5%, the viability, T/C (second compound 3 µM, first compound 0.316 µM) was 60.5% and the viability, T/C (second compound 3 µM, first compound 1 µM) was 60.1%. The viability, T/C (second compound 3 µM, first compound 3.16 µM) was 51.8% and the viability, T/C (second compound 3 µM, first compound 10 µM) was 48.8%.
